Data reported in patent publication US12252524B2, “GIP/GLP1 co-agonist compounds” (Eli Lilly and Company, priority 2018, dated 2025).
Numbered stars: 1 amine (or outer) side, 2 acyl side, 3 side chain; on linkers, the order of the positions; unused ones are H or OH. Square brackets hold non-standard residues; d marks the D form. Side chains are listed from the residue outwards. Peptide text beside a SMILES is read from it. * marks the point of attachment. C20 diacid = O=C(O)CCCCCCCCCCCCCCCCCCC(=O)*; γGlu = O=C(O)[C@H](CCC(=O)[*:2])N[*:1]; Desaminotyrosyl = O=C(CCc1ccc(O)cc1)*; αMeF = C[C@](N)(Cc1ccccc1)C(=O)O; Aad = N[C@@H](CCCC(=O)O)C(=O)O; αMeL = CC(C)C[C@](C)(N)C(=O)O; AEEA = NCCOCCOCC(=O)O; Aib = CC(C)(N)C(=O)O

Legend:
human Gcg receptor = biological target: T1, human Gcg receptor (Homo sapiens, UniProt P47871); test: [125I]-Glucagon binding (SPA), human Gcg receptor; conditions: read-out: hGLcgR Ki, nM (SEM, n)
T1 construct: expressed in transfected cells; crude membranes
T1 sequence (P47871 26-477): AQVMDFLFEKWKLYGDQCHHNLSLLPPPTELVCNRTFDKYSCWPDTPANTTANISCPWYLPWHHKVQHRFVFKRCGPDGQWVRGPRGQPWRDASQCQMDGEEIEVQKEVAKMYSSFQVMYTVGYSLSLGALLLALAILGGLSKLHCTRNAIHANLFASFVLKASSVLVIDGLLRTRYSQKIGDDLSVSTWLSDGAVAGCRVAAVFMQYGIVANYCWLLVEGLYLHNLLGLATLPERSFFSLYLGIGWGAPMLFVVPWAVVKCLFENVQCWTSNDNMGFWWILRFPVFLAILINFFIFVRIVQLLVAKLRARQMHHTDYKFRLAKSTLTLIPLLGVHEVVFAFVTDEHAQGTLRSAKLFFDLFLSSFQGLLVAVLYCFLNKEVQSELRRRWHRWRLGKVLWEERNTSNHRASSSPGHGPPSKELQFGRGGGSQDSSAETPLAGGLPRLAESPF
Summary of the method: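 Scintillation counts are taken after membranes and WGA beads incubate and settle for 12 hours at room temperature. Buffer is 25 mM HEPES, pH 7.4, with CaCl2, MgCl2, bacitracin and Tween-20. Ki values, from four-parameter IC50 fits, are geometric means over independent days.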

human GIP receptor = biological target: T2, human GIP receptor (Homo sapiens, UniProt P48546); test: [125I]-GIP binding (SPA), human GIP receptor; conditions: read-out: hGIPR Ki, nM (SEM, n)
T2 construct: expressed in transfected cells; crude membranes
T2 sequence (P48546 22-466): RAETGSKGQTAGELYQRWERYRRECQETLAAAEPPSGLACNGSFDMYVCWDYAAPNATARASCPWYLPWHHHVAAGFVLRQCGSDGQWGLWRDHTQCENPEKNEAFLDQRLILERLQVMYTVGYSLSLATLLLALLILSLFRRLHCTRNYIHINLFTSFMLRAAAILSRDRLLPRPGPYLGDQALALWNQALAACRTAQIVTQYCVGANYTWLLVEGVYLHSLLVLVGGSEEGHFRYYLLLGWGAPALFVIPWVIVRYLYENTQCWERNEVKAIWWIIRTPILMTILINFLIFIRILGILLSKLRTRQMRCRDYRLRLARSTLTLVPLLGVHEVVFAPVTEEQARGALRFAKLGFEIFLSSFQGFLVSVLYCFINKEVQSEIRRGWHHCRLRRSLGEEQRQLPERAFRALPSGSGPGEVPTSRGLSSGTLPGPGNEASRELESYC

[1] = biological target: human GLP-1 receptor (GLP-1R) (Homo sapiens, UniProt P43220); test: cAMP pharmacological functional assay in presence of casein, hGLP-1R; type: cell-based; conditions: HEK293 cells expressing hGLP-1R, 0.1% Casein, geometric mean; read-out: hGLP1R cAMP Rel EC50 nM (SEM, n)
Chain of human GLP-1 receptor (GLP-1R) (P43220 24-463): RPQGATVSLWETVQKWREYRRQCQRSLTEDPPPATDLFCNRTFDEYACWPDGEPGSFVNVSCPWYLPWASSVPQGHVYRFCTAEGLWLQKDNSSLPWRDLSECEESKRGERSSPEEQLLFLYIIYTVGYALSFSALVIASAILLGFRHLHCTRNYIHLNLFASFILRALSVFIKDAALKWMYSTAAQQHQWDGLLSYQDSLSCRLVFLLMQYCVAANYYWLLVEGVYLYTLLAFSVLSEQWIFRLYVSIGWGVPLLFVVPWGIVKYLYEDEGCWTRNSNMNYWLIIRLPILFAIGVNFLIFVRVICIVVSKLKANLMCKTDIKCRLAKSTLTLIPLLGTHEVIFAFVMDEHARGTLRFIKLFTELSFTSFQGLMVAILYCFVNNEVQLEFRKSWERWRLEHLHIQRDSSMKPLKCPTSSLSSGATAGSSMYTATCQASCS

[2] = biological target: T3, gastric inhibitory peptide receptor (GIPR) (Homo sapiens, UniProt P48546); test: cAMP pharmacological functional assay in presence of casein, hGIPR; type: cell-based; conditions: HEK293 cells expressing hGIPR, 0.1% Casein, geometric mean; read-out: hGIPR cAMP Rel EC50 nM (SEM, n)
T3 sequence (P48546 22-466): T2 sequence (P48546 22-466)

human GLP-1R = human GLP-1R (Homo sapiens, UniProt P43220); test: [125I]-GLP-1 binding (SPA), human GLP-1 receptor; design: expressed in transfected cells; crude membranes; conditions: read-out: hGLP1R Ki, (nM) (SEM, n)
Chain of human GLP-1R (P43220 24-463): as above
Summary of the method: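 Frozen cell pellets are lysed on ice in hypotonic Tris buffer, pH 7.5, homogenized, and centrifuged to a membrane pellet resuspended at about 1 to 3 mg/mL. Binding is then measured in HEPES-based buffer at pH 7.4, and curves are fitted to give IC50 and Ki.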

Compound	Ki (human Gcg receptor) [nM]	Ki (human GIP receptor) [nM]	EC50 [1] [nM]	EC50 [2] [nM]	Ki (human GLP-1R) [nM]
CC[C@H](C)[C@H](NC(=O)[C@H](CC(C)C)NC(=O)[C@H](Cc1ccc(O)cc1)NC(=O)[C@H](CCC(=O)O)NC(=O)[C@@H](NC(=O)[C@H](Cc1ccccc1)NC(=O)[C@H](C)NC(=O)C(C)(C)NC(=O)[C@H](CCC(N)=O)NC(=O)[C@H](C)NC(=O)[C@H](CCCCNC(=O)COCCOCCNC(=O)COCCOCCNC(=O)CC[C@H](NC(=O)CCCCCCCCCCCCCCCCCCC(=O)O)C(=O)O)NC(=O)[C@H](CCCCN)NC(=O)[C@H](CC(=O)O)NC(=O)[C@H](CC(C)C)NC(=O)[C@H](CC(C)C)NC(=O)[C@@H](NC(=O)[C@H](CO)NC(=O)[C@H](CCC(=O)O)NC(=O)[C@H](CC(=O)O)NC(=O)[C@H](CO)NC(=O)[C@@H](NC(=O)[C@](C)(Cc1ccccc1)NC(=O)[C@@H](NC(=O)CNC(=O)[C@H](CCC(=O)O)NC(=O)C(C)(C)NC(=O)[C@@H](N)Cc1ccc(O)cc1)[C@@H](C)O)[C@@H](C)O)[C@@H](C)CC)[C@@H](C)CC)C(=O)N[C@@H](CCC(=O)O)C(=O)NCC(=O)NCC(=O)N1CCC[C@H]1C(=O)N[C@@H](CO)C(=O)N[C@@H](CO)C(=O)NCC(=O)N[C@@H](C)C(=O)N1CCC[C@H]1C(=O)N1CCC[C@H]1C(=O)N1CCC[C@H]1C(=O)N[C@@H](CO)C(N)=O [Example 130] (H-Y[Aib]EGT[αMeF]TSDESILLDKK([AEEA-AEEA-γGlu-C20 diacid])AQ[Aib]AFIEYLIEGGPSSGAPPPS-NH2; N-terminus assumed)	> 1060	0.177	0.368	1.55	3.66
CC[C@H](C)[C@H](NC(=O)[C@H](CC(C)C)NC(=O)[C@H](Cc1ccc(O)cc1)NC(=O)[C@H](CCC(=O)O)NC(=O)[C@@H](NC(=O)[C@H](Cc1ccccc1)NC(=O)[C@H](C)NC(=O)C(C)(C)NC(=O)[C@H](CCC(N)=O)NC(=O)[C@H](C)NC(=O)[C@H](CCCCNC(=O)COCCOCCNC(=O)COCCOCCNC(=O)CC[C@H](NC(=O)CCCCCCCCCCCCCCCCCCC(=O)O)C(=O)O)NC(=O)[C@H](CCC(=O)O)NC(=O)[C@H](CC(=O)O)NC(=O)[C@H](CC(C)C)NC(=O)C(C)(C)NC(=O)[C@@H](NC(=O)[C@H](CO)NC(=O)[C@H](Cc1ccc(O)cc1)NC(=O)[C@H](CC(=O)O)NC(=O)[C@H](CO)NC(=O)[C@@H](NC(=O)[C@](C)(Cc1ccccc1)NC(=O)[C@@H](NC(=O)CNC(=O)[C@H](CCC(=O)O)NC(=O)C(C)(C)NC(=O)CCc1ccc(O)cc1)[C@@H](C)O)[C@@H](C)O)[C@@H](C)CC)[C@@H](C)CC)C(=O)N[C@@H](CCC(=O)O)C(=O)NCC(=O)NCC(=O)N1CCC[C@H]1C(=O)N[C@@H](CO)C(=O)N[C@@H](CO)C(=O)NCC(=O)N[C@@H](C)C(=O)N1CCC[C@H]1C(=O)N1CCC[C@H]1C(=O)N1CCC[C@H]1C(=O)N[C@@H](CO)C(N)=O [Example 133] (Desaminotyrosyl-[Aib]EGT[αMeF]TSDYSI[Aib]LDEK([AEEA-AEEA-γGlu-C20 diacid])AQ[Aib]AFIEYLIEGGPSSGAPPPS-NH2)	216	0.157	0.0436	0.0879	11.4
CC[C@H](C)[C@H](NC(=O)[C@H](CC(C)C)NC(=O)[C@H](Cc1ccc(O)cc1)NC(=O)[C@H](CCC(=O)O)NC(=O)[C@@H](NC(=O)[C@H](Cc1ccccc1)NC(=O)[C@H](C)NC(=O)C(C)(C)NC(=O)[C@H](CCC(N)=O)NC(=O)[C@H](C)NC(=O)[C@H](CCCCNC(=O)COCCOCCNC(=O)COCCOCCNC(=O)CC[C@H](NC(=O)CCCCCCCCCCCCCCCCCCC(=O)O)C(=O)O)NC(=O)[C@H](CCCCN)NC(=O)[C@H](CC(=O)O)NC(=O)[C@H](CC(C)C)NC(=O)[C@H](CC(C)C)NC(=O)[C@@H](NC(=O)[C@H](CO)NC(=O)[C@H](Cc1ccc(O)cc1)NC(=O)[C@H](CC(=O)O)NC(=O)[C@H](CO)NC(=O)[C@@H](NC(=O)[C@H](Cc1ccccc1)NC(=O)[C@@H](NC(=O)CNC(=O)[C@H](CC(N)=O)NC(=O)C(C)(C)NC(=O)[C@@H](N)Cc1c[nH]cn1)[C@@H](C)O)[C@@H](C)O)[C@@H](C)CC)[C@@H](C)CC)C(=O)N[C@@H](CCC(=O)O)C(=O)NCC(=O)NCC(=O)N1CCC[C@H]1C(=O)N[C@@H](CO)C(=O)N[C@@H](CO)C(=O)NCC(=O)N[C@@H](C)C(=O)N1CCC[C@H]1C(=O)N1CCC[C@H]1C(=O)N1CCC[C@H]1C(=O)N[C@@H](CO)C(N)=O [Example 135] (H-H[Aib]NGTFTSDYSILLDKK([AEEA-AEEA-γGlu-C20 diacid])AQ[Aib]AFIEYLIEGGPSSGAPPPS-NH2)	454	0.161	0.131	0.373	3.01
CC[C@H](C)[C@H](NC(=O)[C@H](CC(C)C)NC(=O)[C@H](Cc1ccc(O)cc1)NC(=O)[C@H](CCC(=O)O)NC(=O)[C@@H](NC(=O)[C@H](Cc1ccccc1)NC(=O)[C@H](CCCC(=O)O)NC(=O)C(C)(C)NC(=O)[C@H](CCC(N)=O)NC(=O)[C@H](C)NC(=O)[C@H](CCCCNC(=O)COCCOCCNC(=O)COCCOCCNC(=O)CC[C@H](NC(=O)CCCCCCCCCCCCCCCCCCC(=O)O)C(=O)O)NC(=O)[C@H](CCCCN)NC(=O)[C@H](CC(=O)O)NC(=O)[C@H](CC(C)C)NC(=O)[C@](C)(CC(C)C)NC(=O)[C@@H](NC(=O)[C@H](CO)NC(=O)[C@H](Cc1ccc(O)cc1)NC(=O)[C@H](CC(=O)O)NC(=O)[C@H](CO)NC(=O)[C@@H](NC(=O)[C@](C)(Cc1ccccc1)NC(=O)[C@@H](NC(=O)CNC(=O)[C@H](CCC(=O)O)NC(=O)C(C)(C)NC(=O)[C@@H](N)Cc1ccc(O)cc1)[C@@H](C)O)[C@@H](C)O)[C@@H](C)CC)[C@@H](C)CC)C(=O)N[C@@H](CCC(=O)O)C(=O)NCC(=O)NCC(=O)N1CCC[C@H]1C(=O)N[C@@H](CO)C(=O)N[C@@H](CO)C(=O)NCC(=O)N[C@@H](C)C(=O)N1CCC[C@H]1C(=O)N1CCC[C@H]1C(=O)N1CCC[C@H]1C(=O)N[C@@H](CO)C(N)=O [Example 137] (H-Y[Aib]EGT[αMeF]TSDYSI[αMeL]LDKK([AEEA-AEEA-γGlu-C20 diacid])AQ[Aib][Aad]FIEYLIEGGPSSGAPPPS-NH2)	98.1	0.0373	0.0397	0.0333	1.24
CC[C@H](C)[C@H](NC(=O)[C@H](CC(C)C)NC(=O)[C@H](Cc1ccc(O)cc1)NC(=O)[C@H](CCC(=O)O)NC(=O)[C@@H](NC(=O)[C@H](Cc1ccccc1)NC(=O)[C@H](CO)NC(=O)C(C)(C)NC(=O)[C@H](CCC(N)=O)NC(=O)[C@H](C)NC(=O)[C@H](CCCCNC(=O)COCCOCCNC(=O)COCCOCCNC(=O)CC[C@H](NC(=O)CCCCCCCCCCCCCCCCCCC(=O)O)C(=O)O)NC(=O)[C@H](CCCCN)NC(=O)[C@H](CC(=O)O)NC(=O)[C@H](CC(C)C)NC(=O)[C@](C)(CC(C)C)NC(=O)[C@@H](NC(=O)[C@H](CO)NC(=O)[C@H](Cc1ccc(O)cc1)NC(=O)[C@H](CC(=O)O)NC(=O)[C@H](CO)NC(=O)[C@@H](NC(=O)[C@](C)(Cc1ccccc1)NC(=O)[C@@H](NC(=O)CNC(=O)[C@H](CCC(=O)O)NC(=O)C(C)(C)NC(=O)[C@@H](N)Cc1ccc(O)cc1)[C@@H](C)O)[C@@H](C)O)[C@@H](C)CC)[C@@H](C)CC)C(=O)N[C@@H](CCC(=O)O)C(=O)NCC(=O)NCC(=O)N1CCC[C@H]1C(=O)N[C@@H](CO)C(=O)N[C@@H](CO)C(=O)NCC(=O)N[C@@H](C)C(=O)N1CCC[C@H]1C(=O)N1CCC[C@H]1C(=O)N1CCC[C@H]1C(=O)N[C@@H](CO)C(N)=O [Example 138] (H-Y[Aib]EGT[αMeF]TSDYSI[αMeL]LDKK([AEEA-AEEA-γGlu-C20 diacid])AQ[Aib]SFIEYLIEGGPSSGAPPPS-NH2; N-terminus assumed)	61.2	0.0295	0.0471	0.0581	0.926
